ChEMBL document CHEMBL3045940, “In vivo peritoneal antiangiogenesis and in vitro antiproliferative properties of some bischalcone derivatives” (Med Chem Res, 2012)
Activity calls are given as the source filed them. The calls are words filed in the database; no cut-off is given here.

How the values were obtained:
EAT [1] = test: Antitumor activity against Mus musculus (mouse) EAT cells xenografted in Mus musculus Swiss albino (mouse) assessed as decrease in cell viability drug administered on day 7,9 and 11 after tumor transplantation; type: functional, cell-based
[2] = Antitumor activity against Mus musculus (mouse) EAT cells xenografted in Mus musculus Swiss albino (mouse) assessed as reduction in ascites volume drug administered on day 7,9 and 11 after tumor transplantation […]; type: functional
HeLa = test: Antiproliferative activity against Homo sapiens (human) HeLa cells after 48 hr by MTT assay; type: functional, cell-based
EAT [3] = test: Induction of apoptosis in Mus musculus (mouse) EAT cells xenografted in Mus musculus Swiss albino (mouse) assessed as appearance of condensed nuclei, membrane blebbing and formation of apoptotic bodies drug administered on day 7,9 and 11 after tumor transplantation by Giemsa, ethidium bromide/acridine orange staining analysis; type: functional, cell-based
Mus musculus = test: Antiangiogenic activity in EAT cells xenografted in Mus musculus Swiss albino (mouse) assessed as reduction in vasculaization in peritoneal cavity drug administered on day 7,9 and 11 after tumor transplantation; type: functional, organism-based
HepG2 [4] = test: Induction of apoptosis in Homo sapiens (human) HepG2 cells assessed as DNA fragmentation at 10 uM after 24 hr by agarose gel electrophoresis; type: functional, cell-based
EAT [5] = test: Antitumor activity against Mus musculus (mouse) EAT cells xenografted in Mus musculus Swiss albino (mouse) assessed as decrease in tumor burden measured as reduction in body weight drug administered on day 7,9 and 11 after tumor transplantation; type: functional, cell-based
HepG2 [6] = test: Antiproliferative activity against Homo sapiens (human) HepG2 cells after 48 hr by MTT assay; type: functional, cell-based; conditions: HepG2, 48 h
EAT [7] = test: Induction of apoptosis in Mus musculus (mouse) EAT cells xenografted in Mus musculus Swiss albino (mouse) assessed as DNA fragmentation drug administered on day 7,9 and 11 after tumor transplantation by agarose gel electrophoresis; type: functional, cell-based

For `COc1cc(/C=C2\CC/C(=C\c3ccc(O)c(OC)c3)C2=O)ccc1O`, the inhibition (EAT [1]) was “Active”, the “inhibition (INH)” value [2] was 70% and the IC50 (HeLa) was 42 µM. For the same compound, the Activity (EAT [3]) was “Active”, the inhibition (Mus musculus) was “Active” and the Activity (HepG2 [4]) was “Active”. For the same compound, the inhibition (EAT [5]) was “Active”, the IC50 (HepG2 [6]) was 44 µM and the Activity (EAT [7]) was “Active”.
With `O=C1/C(=C/c2ccc(F)cc2)CC/C1=C\c1ccc(F)cc1` the inhibition (EAT [1]) was “Active”, the “inhibition (INH)” value [2] was 70% and the IC50 (HeLa) was 39 µM. The Activity (EAT [3]) was “Active”, the inhibition (Mus musculus) was “Active” and the Activity (HepG2 [4]) was “Active”. The inhibition (EAT [5]) was “Active”, the IC50 (HepG2 [6]) was 48 µM and the Activity (EAT [7]) was “Active”.
In the case of `COc1ccc(/C=C2\CC/C(=C\c3ccc(OC)c(OC)c3)C2=O)cc1OC`, the inhibition (EAT [1]) is reported as “Active”, the “inhibition (INH)” value [2] is reported as 70% and the IC50 (HeLa) is reported as 110 µM. For the same compound, the Activity (EAT [3]) was “Active”, the inhibition (Mus musculus) was “Active” and the Activity (HepG2 [4]) was “Active”. The inhibition (EAT [5]) was “Active”, the IC50 (HepG2 [6]) was 106 µM and the Activity (EAT [7]) was “Active”.
